Results published in ChEMBL document CHEMBL3091348, “Discovery of an intravenous hepatoselective glucokinase activator for the treatment of inpatient hyperglycemia” (Bioorg Med Chem Lett, 2013).
≈ marks a conversion by molar mass, not a printed value.

How the values were obtained:
[1] = Intrinsic clearance in human liver microsomes; type: ADME; settings: read-out: CLH
[2] = Organic anion transporter-mediated drug uptake in rat hepatocytes assessed as active uptake; type: ADME, cell-based, Hepatocyte
[3] = Organic anion transporter-mediated drug uptake in rat hepatocytes assessed as passive uptake; type: ADME, cell-based, Hepatocyte
[4] = Organic anion transporter-mediated drug uptake in rat hepatocytes assessed as total uptake; type: ADME, cell-based, Hepatocyte
[5] = Apparent permeability in RRCK cells at pH 5.5; type: ADME, cell-based, Canis lupus familiaris, MDCKII-LE; settings: dog, MDCK
[6] = Apparent permeability in RRCK cells at pH 6.5; type: ADME, cell-based, Canis lupus familiaris, MDCKII-LE; settings: dog, MDCK
[7] = Apparent permeability in RRCK cells at pH 7.4; type: ADME, cell-based, Canis lupus familiaris, MDCKII-LE; settings: dog, MDCK
OATP1B3 = target: T1, OATP1B3 (Homo sapiens, UniProt Q9NPD5); experiment: Activity at OATP1B3 (unknown origin) transfected in HEK cells assessed as transporter-mediated cellular uptake relative to mock-transfected HEK cells; type: ADME, cell-based; settings: HEK293 cells transfected with OATP1B3, read-out: FC
T1 sequence (Q9NPD5 whole entry): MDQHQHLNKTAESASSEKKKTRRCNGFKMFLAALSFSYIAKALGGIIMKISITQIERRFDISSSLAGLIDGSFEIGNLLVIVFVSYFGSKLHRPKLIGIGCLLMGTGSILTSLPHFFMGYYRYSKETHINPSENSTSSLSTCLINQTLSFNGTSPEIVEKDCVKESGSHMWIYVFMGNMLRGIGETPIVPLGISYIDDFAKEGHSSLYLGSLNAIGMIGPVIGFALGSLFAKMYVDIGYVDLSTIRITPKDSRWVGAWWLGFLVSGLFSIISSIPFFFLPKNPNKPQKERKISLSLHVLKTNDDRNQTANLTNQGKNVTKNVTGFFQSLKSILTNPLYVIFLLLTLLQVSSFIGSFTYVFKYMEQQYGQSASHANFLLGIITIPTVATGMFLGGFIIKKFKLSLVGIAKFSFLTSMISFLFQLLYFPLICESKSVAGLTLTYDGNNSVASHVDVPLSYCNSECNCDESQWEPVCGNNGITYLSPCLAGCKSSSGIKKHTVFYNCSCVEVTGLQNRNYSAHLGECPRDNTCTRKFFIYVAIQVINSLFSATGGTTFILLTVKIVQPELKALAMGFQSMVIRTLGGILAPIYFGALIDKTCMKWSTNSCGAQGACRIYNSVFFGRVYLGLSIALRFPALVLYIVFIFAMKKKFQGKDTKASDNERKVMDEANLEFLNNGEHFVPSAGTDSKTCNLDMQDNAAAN

OATP1B1 = target: T2, OATP1B1 (Homo sapiens, UniProt Q9Y6L6); experiment: Activity at OATP1B1 (unknown origin) transfected in HEK cells assessed as transporter-mediated cellular uptake relative to mock-transfected HEK cells; type: ADME, cell-based; settings: HEK293 cells transfected with OATP1B1, read-out: FC
T2 sequence (Q9Y6L6 whole entry): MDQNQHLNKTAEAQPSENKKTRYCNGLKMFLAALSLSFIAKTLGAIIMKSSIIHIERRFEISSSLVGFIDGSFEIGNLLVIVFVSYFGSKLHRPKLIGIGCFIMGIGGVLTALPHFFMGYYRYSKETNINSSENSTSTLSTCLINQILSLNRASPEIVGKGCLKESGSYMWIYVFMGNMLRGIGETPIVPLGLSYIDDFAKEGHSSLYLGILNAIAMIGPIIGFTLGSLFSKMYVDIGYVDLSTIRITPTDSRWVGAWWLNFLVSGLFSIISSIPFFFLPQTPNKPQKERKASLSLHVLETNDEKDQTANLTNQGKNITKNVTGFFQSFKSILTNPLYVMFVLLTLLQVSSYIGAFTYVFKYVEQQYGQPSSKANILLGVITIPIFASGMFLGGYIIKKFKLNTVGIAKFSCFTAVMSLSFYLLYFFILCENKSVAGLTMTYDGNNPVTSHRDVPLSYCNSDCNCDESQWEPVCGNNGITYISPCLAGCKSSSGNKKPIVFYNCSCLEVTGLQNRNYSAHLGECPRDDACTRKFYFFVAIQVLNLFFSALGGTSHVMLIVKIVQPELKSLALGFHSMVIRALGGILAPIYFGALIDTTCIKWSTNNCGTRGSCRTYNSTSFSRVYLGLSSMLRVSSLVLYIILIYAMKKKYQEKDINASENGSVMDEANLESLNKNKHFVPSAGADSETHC

Hexokinase-4 [8] = target: T3, Hexokinase-4 (Rattus norvegicus, UniProt P17712); experiment: Activation of glucokinase in Wistar rat hepatocytes assessed as nuclear to cytosolic translocation of protein by immunofluorescence assay; type: cell-based, Hepatocyte
T3 sequence (P17712 whole entry): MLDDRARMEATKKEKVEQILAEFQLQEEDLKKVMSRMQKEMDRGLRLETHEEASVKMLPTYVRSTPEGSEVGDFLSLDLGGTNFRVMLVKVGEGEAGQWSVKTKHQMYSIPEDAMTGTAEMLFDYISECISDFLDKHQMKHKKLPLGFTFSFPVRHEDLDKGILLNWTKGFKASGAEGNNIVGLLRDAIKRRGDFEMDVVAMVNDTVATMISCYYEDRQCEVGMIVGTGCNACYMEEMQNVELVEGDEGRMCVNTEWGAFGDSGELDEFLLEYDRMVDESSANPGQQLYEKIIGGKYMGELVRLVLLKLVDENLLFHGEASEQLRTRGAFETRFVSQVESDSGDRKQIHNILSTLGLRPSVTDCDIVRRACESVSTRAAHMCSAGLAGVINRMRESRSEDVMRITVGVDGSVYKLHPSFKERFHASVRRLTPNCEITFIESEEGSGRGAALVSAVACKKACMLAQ

Rattus norvegicus [9] = experiment: Antidiabetic activity in Goto-Kakizaki rat diabetic model assessed as reduction in glucose excursion AUC at 24 mg/kg, iv administered as infusion for 4 hrs measured after 2 hrs by oral glucose tolerance test relative to control; type: functional; set-up: scale not given: the % may be the effect or the level left
Rattus norvegicus [10] = experiment: Antihyperglycemic activity in rat assessed as liver to plasma AUC ratio at EC50 dose, iv administered as infusion up to 4 days; type: functional
Rattus norvegicus [11] = experiment: Antihyperglycemic activity in rat assessed as liver to plasma AUC ratio at 5 mg/kg, iv administered as bolus after 1 to 6 hrs; type: functional
[12] = Oral bioavailability in dog at 5 mg/kg; type: ADME, organism-based, Canis lupus familiaris; settings: in vivo
[13] = Oral bioavailability in rat at 5 mg/kg; type: ADME, organism-based; settings: in vivo
[14] = Volume of distribution at steady state in dog at 1 mg/kg, iv; type: ADME, organism-based, Canis lupus familiaris; set-up: dose 1 mg/kg, route intravenous; settings: in vivo, read-out: Vdss
[15] = Volume of distribution at steady state in rat at 1 mg/kg, iv; type: ADME, organism-based; set-up: dose 1 mg/kg, route intravenous; settings: in vivo, read-out: Vdss
[16] = Half life in dog at 1 mg/kg, iv; type: ADME, organism-based, Canis lupus familiaris; set-up: dose 1 mg/kg, route intravenous; settings: in vivo
[17] = Half life in rat at 1 mg/kg, iv; type: ADME, organism-based; set-up: dose 1 mg/kg, route intravenous; settings: in vivo
[18] = Clearance in dog at 1 mg/kg, iv; type: ADME, organism-based, Canis lupus familiaris; set-up: dose 1 mg/kg, route intravenous; settings: in vivo
[19] = Clearance in rat at 1 mg/kg, iv; type: ADME, organism-based; set-up: dose 1 mg/kg, route intravenous; settings: in vivo
[20] = Cmax in dog at 5 mg/kg, po; type: ADME, organism-based, Canis lupus familiaris; set-up: dose 5 mg/kg, route oral; settings: in vivo
[21] = Cmax in dog at 1 mg/kg, iv; type: ADME, organism-based, Canis lupus familiaris; set-up: dose 1 mg/kg, route intravenous; settings: in vivo
[22] = Cmax in rat at 5 mg/kg, po; type: ADME, organism-based; set-up: dose 5 mg/kg, route oral; settings: in vivo
[23] = Cmax in rat at 1 mg/kg, iv; type: ADME, organism-based; set-up: dose 1 mg/kg, route intravenous; settings: in vivo
[24] = AUC (0 to 24 hrs) in dog at 5 mg/kg, po; type: ADME, organism-based, Canis lupus familiaris; set-up: time < 24 hr, dose 5 mg/kg, route oral; settings: plasma
[25] = AUC (0 to 24 hrs) in dog at 1 mg/kg, iv; type: ADME, organism-based, Canis lupus familiaris; set-up: time < 24 hr, dose 1 mg/kg, route intravenous; settings: plasma
[26] = AUC (0 to 24 hrs) in rat at 1 mg/kg, iv; type: ADME, organism-based; set-up: time < 24 hr, dose 1 mg/kg, route intravenous; settings: plasma
[27] = AUC (0 to 24 hrs) in rat at 5 mg/kg, po; type: ADME, organism-based; set-up: time < 24 hr, dose 5 mg/kg, route oral; settings: plasma
Hexokinase-4 [28] = target: T3, Hexokinase-4; experiment: Activation of glucokinase in rat INS-1 cells assessed as glucose-stimulated insulin secretion; type: cell-based, INS1
[29] = Aqueous kinetic solubility of the compound at pH 6.5; type: physicochemical; settings: read-out: Kinetic_solubility
[30] = Apparent permeability across RRCK cells; type: ADME, cell-based, Canis lupus familiaris, MDCKII-LE; settings: dog, MDCK
[31] = Lipophilicity, log D of the compound at pH 7.4; type: physicochemical; settings: buffer
Hexokinase-4 [32] = target: T4, Hexokinase-4 (Homo sapiens, UniProt P35557); experiment: Activation of recombinant human glucokinase by G6PDH/NADP coupled assay
T4 sequence (P35557 whole entry): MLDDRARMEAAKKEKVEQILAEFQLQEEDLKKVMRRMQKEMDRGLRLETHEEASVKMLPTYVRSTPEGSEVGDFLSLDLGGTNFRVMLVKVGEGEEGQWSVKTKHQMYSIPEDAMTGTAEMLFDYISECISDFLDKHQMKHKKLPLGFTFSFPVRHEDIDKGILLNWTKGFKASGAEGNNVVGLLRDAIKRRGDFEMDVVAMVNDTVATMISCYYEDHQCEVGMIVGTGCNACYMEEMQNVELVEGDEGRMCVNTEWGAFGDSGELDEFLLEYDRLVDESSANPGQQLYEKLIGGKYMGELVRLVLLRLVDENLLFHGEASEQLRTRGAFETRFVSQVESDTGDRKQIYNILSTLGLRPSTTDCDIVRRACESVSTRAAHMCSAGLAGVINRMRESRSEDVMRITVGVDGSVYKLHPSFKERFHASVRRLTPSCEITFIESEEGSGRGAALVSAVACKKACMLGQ

[33] = target: T5, Hexokinase-4 (Homo sapiens) (UniProt P35557); experiment: Activation of recombinant human glucokinase assessed as increase in enzyme Vmax for glucose by G6PDH/NADP coupled assay relative to control
T5 sequence (whole entry): T4 sequence (P35557 whole entry)

[34] = target: T5, Hexokinase-4 (Homo sapiens); experiment: Activation of recombinant human glucokinase assessed as decrease in enzyme Km for glucose by G6PDH/NADP coupled assay relative to control

## O=C(O)c1ccc(NC(=O)[C@H](CC2CCCC2)n2cnc(S(=O)(=O)C3CCC3)c2)nc1 [listing 1 of 2 here]
[1]
  CLint scaled: < 8 mL/min/kg
[2]
  Drug uptake: 55%
[3]
  Drug uptake: 12 µL/min/mg
[4]
  Drug uptake: 22 µL/min/mg
[5]
  Papp: 1.4 ×10⁻⁶ cm/s
[6]
  Papp: 1.3 ×10⁻⁶ cm/s
[7]
  Papp: 2 ×10⁻⁶ cm/s
OATP1B3
  uptake ratio: 2.3
OATP1B1
  uptake ratio: 4.1
Hexokinase-4 [8]
  IC50: 1.7 µM
Rattus norvegicus [9]
  Activity: 15.4%
Rattus norvegicus [10]
  Ratio AUC: 3.5
Rattus norvegicus [11]
  Ratio AUC: 2
[12]
  bioavailability: < 5%
[13]
  bioavailability: < 1%
[14]
  Vd: 0.4 L/kg
[15]
  Vd: 0.8 L/kg
[16]
  half-life: 42 min
[17]
  half-life: 12 min
[18]
  clearance: 18 mL/min/kg
[19]
  clearance: 96 mL/min/kg
[20]
  Cmax: 12.8 ng/mL
[21]
  Cmax: 6350 ng/mL
[22]
  Cmax: 2.5 ng/mL
[23]
  Cmax: 1400 ng/mL
[24]
  AUC(0-t) at 24 h: 36.6 ng·h/mL
[25]
  AUC(0-t) at 24 h: 932 ng·h/mL
[26]
  AUC(0-t) at 24 h: 176 ng·h/mL
[27]
  AUC(0-t) at 24 h: 3.4 ng·h/mL
Hexokinase-4 [28]
  EC50: 174 µM
[29]
  solubility kinetic: 428 µM (≈ 191 µg/mL)
[30]
  Papp: 0.5 ×10⁻⁶ cm/s
[31]
  logD: -0.1
Hexokinase-4 [32]
  EC50: 0.201 µM

## O=C(O)c1ccc(NC(=O)[C@H](CC2CCCCC2)n2cnc(S(=O)(=O)C3CCC3)c2)nc1
[29]
  solubility kinetic: 198 µM (≈ 91.2 µg/mL)
[30]
  Papp: 0.3 ×10⁻⁶ cm/s
[31]
  logD: 0.15
[33]
  fold change (FC): 1.25
[34]
  fold change (FC): 0.08
Hexokinase-4 [32]
  EC50: 0.227 µM

## O=C(O)c1ccc(NC(=O)[C@H](CC2CCCC2)n2cnc(S(=O)(=O)C3CC3)c2)nc1
Hexokinase-4 [28]
  EC50: 26 µM
[30]
  Papp: 0.6 ×10⁻⁶ cm/s
[31]
  logD: -0.2
[33]
  fold change (FC): 1.68
[34]
  fold change (FC): 0.05
Hexokinase-4 [32]
  EC50: 0.137 µM

## O=C(O)c1ccc(NC(=O)[C@H](CC2CCOCC2)n2cnc(S(=O)(=O)C3CC3)c2)nc1
[30]
  Papp: 0.9 ×10⁻⁶ cm/s
[31]
  logD: -1.85
[33]
  fold change (FC): 1.21
[34]
  fold change (FC): 0.11
Hexokinase-4 [32]
  EC50: 1.35 µM

## O=C(O)c1ccc(NC(=O)[C@H](CC2CCCC2)n2cnc(S(=O)(=O)C3CCC3)c2)nc1 [listing 2 of 2 here]
[33]
  fold change (FC): 1.35
[34]
  fold change (FC): 0.06
